Laboratory results: ChEMBL document CHEMBL2069202, “Antiviral activity and synthesis of quaternized promazine derivatives against HSV-1” (Bioorg Med Chem Lett, 2012)
The source made the active and inactive calls. The calls are words filed in the database; no cut-off is given here.

Assays:
Human alphaherpesvirus 1 [1] = assay: Antiviral activity against HSV-1 infected in african green monkey Vero cells assessed as inhibition of viral replication after 48 hrs by GFP reduction assay; assay type: functional, organism-based
Human alphaherpesvirus 1 [2] = assay: Antiviral activity against HSV-1 infected in african green monkey Vero cells assessed as inhibition of viral replication at 50 uM treated 2 hrs after post infection by GFP reduction assay; assay type: functional, organism-based
Human alphaherpesvirus 1 [3] = assay: Antiviral activity against HSV-1 infected in african green monkey Vero cells assessed as inhibition of GFP gene expression after 48 hrs by RT-PCR analysis; assay type: functional, organism-based
Human alphaherpesvirus 1 [4] = assay: Antiviral activity against HSV-1 infected in african green monkey Vero cells assessed as inhibition of viral ICP4 gene expression after 48 hrs by RT-PCR analysis; assay type: functional, organism-based
Human alphaherpesvirus 1 [5] = assay: Antiviral activity against HSV-1 infected in african green monkey Vero cells assessed as inhibition of viral replication at 50 uM after 48 hrs by GFP reduction assay; assay type: functional, organism-based
Human alphaherpesvirus 1 [6] = assay: Antiviral activity against HSV-1 infected in african green monkey Vero cells assessed as inhibition of viral replication at 48 uM after 48 hrs by plaque reduction assay; assay type: functional, organism-based
Human alphaherpesvirus 1 [7] = assay: Antiviral activity against HSV-1 infected in african green monkey Vero cells assessed as inhibition of viral replication at 50 uM treated for 24 hrs measured 24 hrs after drug washout by GFP reduction assay; assay type: functional, organism-based
Human alphaherpesvirus 1 [8] = assay: Antiviral activity against HSV-1 infected in african green monkey Vero cells assessed as inhibition of viral replication at 48 uM after 48 hrs by GFP reduction assay; assay type: functional, organism-based
Vero = assay: Cytotoxicity against african green monkey Vero cells up to 200 uM; assay type: cell-based; conditions: chlorocebus sabaeus
Human alphaherpesvirus 1 [9] = assay: Antiviral activity against HSV-1 infected in african green monkey Vero cells assessed as inhibition of viral replication at 50 uM after 48 hrs by GFP reduction assay relative to acyclovir; assay type: functional, organism-based
Human alphaherpesvirus 1 [10] = assay: Antiviral activity against HSV-1 infected in african green monkey Vero cells assessed as inhibition of viral replication at 200 uM after 48 hrs by GFP reduction assay; assay type: functional, organism-based

## C#CC[N+](C)(C)CCCN1c2ccccc2Sc2ccc(C(F)(F)F)cc21
Human alphaherpesvirus 1 [1]
  inhibition: inactive

## Nc1nc2c(ncn2COCCO)c(=O)[nH]1
Human alphaherpesvirus 1 [2]
  inhibition: Active
Human alphaherpesvirus 1 [3]
  inhibition: Active
Human alphaherpesvirus 1 [4]
  inhibition: Active
Human alphaherpesvirus 1 [5]
  inhibition: Active
Human alphaherpesvirus 1 [6]
  inhibition: Active
Human alphaherpesvirus 1 [7]
  inhibition: Active
Human alphaherpesvirus 1 [8]
  inhibition: Active

## C[N+](C)(CCCN1c2ccccc2Sc2ccc(C(F)(F)F)cc21)Cc1ccc(Cl)cc1.[Cl-]
Human alphaherpesvirus 1 [2]
  inhibition: inactive
Human alphaherpesvirus 1 [3]
  inhibition: Active
Human alphaherpesvirus 1 [4]
  inhibition: Active
Vero
  Activity: Non-toxic
Human alphaherpesvirus 1 [6]
  inhibition: Active
Human alphaherpesvirus 1 [7]
  inhibition: inactive
Human alphaherpesvirus 1 [9]
  inhibition: Active
Human alphaherpesvirus 1 [8]
  inhibition: Active

## C[N+](C)(CC#N)CCCN1c2ccccc2Sc2ccc(C(F)(F)F)cc21
Human alphaherpesvirus 1 [1]
  inhibition: inactive

## O[C@]12C=C(c3nccc4c3[nH]c3ccccc34)[C@@H]3CCN(CCCC/C=C\CC1)C[C@@]31C[C@@H]3/C=C\CCCCN3[C@H]12
Human alphaherpesvirus 1 [3]
  inhibition: inactive

## C#CC[N+](C)(C)CCCN1c2ccccc2Sc2ccccc21
Human alphaherpesvirus 1 [1]
  inhibition: inactive

## C=CC[N+](C)(C)CCCN1c2ccccc2Sc2ccc(C(F)(F)F)cc21
Human alphaherpesvirus 1 [1]
  inhibition: inactive

## CCCC[N+](C)(C)CCCN1c2ccccc2Sc2ccc(C(F)(F)F)cc21
Human alphaherpesvirus 1 [10]
  inhibition: Active

## C[N+](C)(CCCN1c2ccccc2Sc2ccc(C(F)(F)F)cc21)Cc1cccc(Cl)c1
Human alphaherpesvirus 1 [10]
  inhibition: Active
Human alphaherpesvirus 1 [5]
  inhibition: inactive

## C[N+](C)(CCCN1c2ccccc2Sc2ccc(C(F)(F)F)cc21)Cc1ccccc1Cl
Human alphaherpesvirus 1 [10]
  inhibition: Active
Human alphaherpesvirus 1 [5]
  inhibition: inactive

## C[N+](C)(CCCN1c2ccccc2Sc2ccc(C(F)(F)F)cc21)Cc1ccccc1
Human alphaherpesvirus 1 [1]
  inhibition: inactive
